Measured values reported in patent US5032109A, “Electrolytic transdermal delivery of polypeptides” (Drug Delivery Systems Inc., priority 1989, dated 1991).
Structures can show the parent of a compound that is named as a salt.

How the values were obtained:
[1] = from Herkovits et al. 1978, cited from earlier work; for Setschenow constant, sum: peptide plus hydrophobic; for -F.° (free energy of transfer): transfer from water to water plus cosolvent; for Setschenow constant, for --CH2--: average hydrophobic group; for Setschenow constant, for peptide: average peptide group
[2] = Blood pressure of hypertensive volunteers wearing atriopeptin patches (Model Example 3); type: in vivo, human; conditions: hypertensive female volunteers, powered patches, 0.01M atriopeptin in 0.1M sodium perchlorate, about 10 ua/cm^2
Description: Ten adult female volunteers, diagnosed as having hypertension, are chosen for this experiment. All are fitted with the large-size electrolytic transdermal patch, as in Example 2. […] Five control patches have no batteries. […] The blood pressure of the ten subjects is measured four times a day.

[3] = set-up: species or system human; conditions: in vivo
Source text: Ten adult female volunteers, diagnosed as having hypertension, are chosen for this experiment. All are fitted with the large-size electrolytic transdermal patch, as in Example 2. […] Five control patches have no batteries.

[4] = Electrical conductivity of urine in diabetes insipidus volunteers wearing Pitressin patches (Model Example 2); type: in vivo, human; conditions: powered large patch, 300 units Pitressin, five days
Description: Six adult male volunteers each having been diagnosed as having diabetes insipidus are tested. Three are fitted with the large-size human patch, as in Example 2, and the three controls are fitted with drug-loaded, identical patches without batteries.
The drug reservoirs of the large electrolytic patches contain 15 ml (300 units) of Pitressin (Parke-aDavis Co., Morris Plains, N.J.). The return reservoir contains 0.9 percent saline buffered to pH 7.2 with ammonium dihydrogen phosphate.
Urine samples are taken from each subject three times per day for five days.

[5] = Total urine output of beagle dogs wearing lypressin electrolytic patches (Model Example 1); type: in vivo; conditions: four beagle dogs, powered patch, 10 ua/cm^2, ten days, Diapid 0.185 mg lypressin/ml
Description: Eight beagle dogs are employed. All of them are clipped on the back, washed with castille soap, and fitted with the small animal electrolytic patches of Example 1, four of them without batteries.
The drug reservoir of each patch contains 6 ml. Diapid 50 USP, 0.185 mg lypressin/ml. The return reservoir contains 0.9 percent saline. A current regulator is set to deliver 10 ua/cm^2.
Over a period of ten days the total urine output of each dog is measured by standard techniques.

Molecule | Setschenow constant, sum [1] | -F.° (free energy of transfer) [1] | Setschenow constant, for --CH2-- [1] | Setschenow constant, for peptide [1] | average blood pressure versus controls (patches without batteries) [2] | drug delivered per hour [3] | electrical conductivity of the urine versus control subjects (patches without batteries) [4] | average total urine volume versus control dogs (patches without batteries) [5]
CCC(=O)[O-].[Na+] [Sodium proprionate] | -0.017 | -23 cal/mo | – | – | – | – | – | –
C1COCCO1 [Dioxane] | 0.016 | 22 cal/mo | -0.013 | +0.029 | – | – | – | –
N=C(N)N [Guanidine hydrochloride, guanidine hydrochloride] | -0.088 | -120 cal/mo | -0.027 | -0.061 | – | – | – | –
[I-].[Na+] [Sodium iodide] | -0.077 | -105 cal/mo | 0.01 | -0.087 | – | – | – | –
CCCC(=O)[O-].[Na+] [Sodium butyrate] | -0.038 | -51 cal/mo | – | – | – | – | – | –
atriopeptin | – | – | – | – | significantly lower | about 200 nanograms of drug per hour | – | –
[I-].[K+] [Potassium iodide] | -0.073 | -100 cal/mo | 0.01 | -0.083 | – | – | – | –
[O-][Cl+3]([O-])([O-])O [Sodium perchlorate] | -0.076 | -104 cal/mo | 0.021 | -0.097 | – | – | – | –
NC(=O)CC[C@@H]1NC(=O)[C@H](Cc2ccccc2)NC(=O)[C@H](Cc2ccc(O)cc2)NC(=O)[C@@H](N)CSSC[C@@H](C(=O)N2CCC[C@H]2C(=O)N[C@@H](CCCN=C(N)N)C(=O)NCC(N)=O)NC(=O)[C@H](CC(N)=O)NC1=O [Pitressin, vasopressin] | – | – | – | – | – | – | significantly higher | –
[Cl-].[Na+] [Sodium chloride] | -0.004 | -5 cal/mo | 0.033 | -0.037 | – | – | – | –
[Br-].[Na+] [Sodium bromide] | -0.012 | -16 cal/mo | 0.025 | -0.037 | – | – | – | –
CCCNC(N)=O [Propylurea] | -0.047 | -64 cal/mo | – | – | – | – | – | –
CCO [Ethanol] | 0.023 | 31 cal/mo | -0.014 | +0.037 | – | – | – | –
NC(N)=O [Urea] | -0.028 | -38 cal/mo | -0.01 | -0.018 | – | – | – | –
NCCCC[C@H](NC(=O)[C@@H]1CCCN1C(=O)[C@@H]1CSSC[C@H](N)C(=O)N[C@@H](Cc2ccc(O)cc2)C(=O)N[C@@H](Cc2ccccc2)C(=O)N[C@@H](CCC(N)=O)C(=O)N[C@@H](CC(N)=O)C(=O)N1)C(=O)NCC(N)=O [lypressin] | – | – | – | – | – | – | – | significantly lower
